Measured values from PubChem BioAssay (NCI).
Several values for one entry are separate records, joined by “and”; a condition that tells them apart may be missing. Identical values can stand only once.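 In this assay, cells in 96-well plates receive the compound at five concentrations for 48 hours. Endpoints are linearly interpolated between the surrounding concentrations. Abbreviation: GI50, concentration required for 50% inhibition of growth. Definition used: TGI = concentration required for complete inhibition of growth.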

Legend:
Experiment in all cases: NCI anticancer screen, dose series, 48 h
DU-145 prostate = test system: DU-145 prostate
HCC-2998 colon = test system: HCC-2998 colon
HT29 colon = test system: HT29 colon
KM12 colon = test system: KM12 colon
NCI-H460 lung = test system: NCI-H460 lung
NCI/ADR-RES ovarian = test system: NCI/ADR-RES ovarian
OVCAR-4 ovarian = test system: OVCAR-4 ovarian
PC-3 prostate = test system: PC-3 prostate
SF-268 CNS = test system: SF-268 CNS
SF-539 CNS = test system: SF-539 CNS
SNB-75 CNS = test system: SNB-75 CNS
T-47D breast = test system: T-47D breast
SK-MEL-2 melanoma = test system: SK-MEL-2 melanoma

Compound: CC(=O)O[C@H]1[C@@H](OC2CCCC2(c2ccccc2)c2ccccc2)O[N+]([O-])=C[C@@]12COCc1cc3c(cc12)OCO3 (stereo partly specified)
- TGI (DU-145 prostate): > 100 µM
- TGI (HCC-2998 colon): 11.9 µM
- TGI (HT29 colon): 9.11 µM
- TGI (KM12 colon): 11.3 µM
- TGI (NCI-H460 lung): 31.5 µM
- TGI (NCI/ADR-RES ovarian): 14.9 µM
- TGI (OVCAR-4 ovarian): 15.1 µM
- TGI (PC-3 prostate): 19.3 µM
- TGI (SF-268 CNS): 14.4 µM
- TGI (SF-539 CNS): > 100 µM
- TGI (SNB-75 CNS): 34.6 µM
- TGI (T-47D breast): > 31.2 µM

Compound: COc1ccc(C(=O)/C=C/c2ccc(OCC(=O)O)cc2)cc1
- TGI (DU-145 prostate): > 100 µM
- TGI (HCC-2998 colon): > 100 µM
- TGI (HT29 colon): > 100 µM
- TGI (KM12 colon): > 100 µM
- TGI (NCI/ADR-RES ovarian): > 100 µM
- TGI (PC-3 prostate): > 100 µM
- TGI (SF-268 CNS): > 100 µM
- TGI (SF-539 CNS): > 100 µM
- TGI (SK-MEL-2 melanoma): > 100 µM
- TGI (SNB-75 CNS): > 100 µM
- TGI (T-47D breast): > 100 µM

Compound: O=c1oc2cccnc2n1CCN1CCN(c2ccc(Oc3ccccc3)cc2)CC1
- TGI (DU-145 prostate): > 100 µM
- TGI (HCC-2998 colon): > 100 µM
- TGI (HT29 colon): > 100 µM
- TGI (NCI-H460 lung): > 100 µM
- TGI (NCI/ADR-RES ovarian): > 100 µM
- TGI (OVCAR-4 ovarian): 75.4 µM
- TGI (PC-3 prostate): > 100 µM
- TGI (SF-268 CNS): > 100 µM
- TGI (SF-539 CNS): > 100 µM
- TGI (SK-MEL-2 melanoma): > 100 µM
- TGI (SNB-75 CNS): > 100 µM
- TGI (T-47D breast): > 100 µM

Compound: COc1cc(/C=C/c2sc3ccccc3[n+]2C)ccc1N(C)C
- TGI (DU-145 prostate): 35 µM
- TGI (HCC-2998 colon): 53.4 µM
- TGI (HT29 colon): 32.4 µM
- GI50 (KM12 colon): 10.1 µM
- TGI (KM12 colon): 21.7 µM
- GI50 (NCI-H460 lung): 13.4 µM
- TGI (NCI-H460 lung): 38 µM
- GI50 (NCI/ADR-RES ovarian): > 100 µM
- TGI (NCI/ADR-RES ovarian): > 100 µM
- TGI (OVCAR-4 ovarian): 40.1 µM
- GI50 (PC-3 prostate): 12.8 µM
- TGI (PC-3 prostate): 32.3 µM
- TGI (SF-268 CNS): 33.6 µM
- TGI (SF-539 CNS): 31.6 µM
- GI50 (SK-MEL-2 melanoma): 12.4 µM
- TGI (SK-MEL-2 melanoma): 8.31 µM and 29.3 µM
- GI50 (T-47D breast): 1.36 µM
- TGI (T-47D breast): 10.8 µM

Compound: COC1=CC(=O)c2c(O)ccc(O)c2C1=O
- TGI (DU-145 prostate): 3.18 µM
- TGI (HCC-2998 colon): 9.33 µM
- TGI (HT29 colon): 4.41 µM
- TGI (KM12 colon): 16.4 µM
- TGI (NCI-H460 lung): 12.9 µM
- TGI (NCI/ADR-RES ovarian): 60.2 µM
- TGI (OVCAR-4 ovarian): 27.2 µM
- TGI (PC-3 prostate): 41.4 µM
- TGI (SF-268 CNS): 17.9 µM
- TGI (SF-539 CNS): 10.4 µM
- TGI (SNB-75 CNS): 3.65 µM
- TGI (T-47D breast): 41.3 µM

Compound: COc1cc(CNC(=O)[C@H](Cc2ccc(O)cn2)NC(C)=O)cc(OC)c1
- TGI (DU-145 prostate): > 100 µM
- TGI (HCC-2998 colon): > 100 µM
- TGI (HT29 colon): > 100 µM
- TGI (KM12 colon): > 100 µM
- TGI (NCI-H460 lung): > 100 µM
- TGI (NCI/ADR-RES ovarian): > 100 µM
- TGI (OVCAR-4 ovarian): > 100 µM
- TGI (PC-3 prostate): > 100 µM
- TGI (SF-268 CNS): > 100 µM
- TGI (SF-539 CNS): > 100 µM
- TGI (SK-MEL-2 melanoma): > 100 µM
- TGI (T-47D breast): > 100 µM

Compound: O/N=C1/CCCCCC1NO (stereo unspecified)
- TGI (DU-145 prostate): > 100 µM
- TGI (HCC-2998 colon): > 100 µM
- TGI (HT29 colon): > 100 µM
- TGI (KM12 colon): > 100 µM
- TGI (NCI-H460 lung): > 100 µM
- TGI (NCI/ADR-RES ovarian): > 100 µM
- TGI (OVCAR-4 ovarian): > 100 µM
- TGI (PC-3 prostate): > 100 µM
- TGI (SF-268 CNS): > 100 µM
- TGI (SF-539 CNS): > 100 µM
- TGI (SK-MEL-2 melanoma): > 100 µM
- TGI (T-47D breast): > 100 µM

Compound: C[C@@H]1OC(=O)C[C@H]2CC(=O)N(CCC3CN(S(=O)(=O)C(F)(F)F)c4ccc(Cc5ccc6c(c5)C(CCN5C[C@H]7[C@@H](CC(=O)O[C@H]7C)CC5=O)CN6S(=O)(=O)C(F)(F)F)cc43)C[C@@H]21 (stereo partly specified)
- TGI (DU-145 prostate): > 100 µM
- TGI (HCC-2998 colon): > 100 µM
- TGI (KM12 colon): > 100 µM
- TGI (NCI-H460 lung): > 100 µM
- TGI (NCI/ADR-RES ovarian): > 100 µM
- TGI (OVCAR-4 ovarian): > 100 µM
- TGI (PC-3 prostate): > 100 µM
- TGI (SF-268 CNS): > 100 µM
- TGI (SF-539 CNS): 1.84 µM
- TGI (SK-MEL-2 melanoma): > 100 µM
- TGI (SNB-75 CNS): > 100 µM
- TGI (T-47D breast): > 100 µM
